Reference: patent US20240000075A1, “FUNGICIDAL ARYL AMIDINES” (CORTEVA AGRISCIENCE LLC, priority 2020, published 2024)
Like-named read-outs stand apart in the source and are kept apart here.

Key:
Puccinia triticina = experiment: Wheat brown rust, whole-plant fungicidal activity (PUCCRT); assay type: in vivo, Puccinia triticina on wheat plants (variety 'Yuma'); details: 24 h, 1DP (1 day protectant), read-out: % Disease Control Rating PUCCRT
Experimental: Technical grades of materials were dissolved in acetone, which were then mixed with nine volumes of water (H2O) containing 110 ppm Triton X-100. The fungicide solutions were applied onto wheat seedlings using an automated booth sprayer to run-off. All sprayed plants were allowed to air dry prior to further handling. All fungicides were evaluated using the aforementioned method for their activity vs. all target diseases, unless stated otherwise.
Example B: Evaluation of Fungicidal Activity: Wheat Brown Rust (Puccinia triticina; Synonym: Puccinia recondita f sp. tritici; Bayer Code PUCCRT)
Wheat plants (variety ‘Yuma’) were grown from seed in a greenhouse in soil-less potting mix until the first leaf was fully emerged, with 7-10 seedlings per pot. These plants were inoculated with an aqueous spore suspension of Puccinia triticina after fungicide treatments. After inoculation, the plants were kept in a dark dew room with 100% relative humidity overnight to permit spores to germinate and infect the leaf. The plants were then transferred to a greenhouse for disease to develop. Fungicide formulation, application and disease assessment followed the procedures as described in Example A.

Phakopsora pachyrhizi = experiment: Asian soybean rust, whole-plant fungicidal activity (PHAKPA); assay type: in vivo; details: read-out: % Disease Control Rating PHAKPA
Experimental: Example C: Evaluation of Fungicidal Activity: Asian Soybean Rust (Phakopsora pachyrhizi; Bayer Code […]) Technical grades of materials were dissolved in acetone, which were then mixed with nine volumes of H2O containing 0.011% Tween-20. The fungicide solutions were applied onto soybean seedlings using an automated booth sprayer to run-off. All sprayed plants were allowed to air dry prior to further handling. Soybean plants (variety 'Williams 82') were grown in soil-less potting mix, with one plant per pot. Ten-day-old seedlings were used for testing. Plants were inoculated as described in Example A. Plants were incubated for 24 h in a dark dew room with 100% relative humidity then transferred to a growth room for disease to develop. Fungicide formulation and application were made as described in Example A. When disease symptoms were fully expressed, disease severity was assessed on the sprayed leaves on a scale of 0 to 100 percent. Percent disease control was calculated using the ratio of disease severity on treated plants relative to untreated plants.

Zymoseptoria tritici = experiment: Septoria leaf blotch of wheat, whole-plant fungicidal activity (SEPTTR); assay type: in vivo, Zymoseptoria tritici on wheat plants (variety 'Yuma'); details: read-out: % Disease Control Rating SEPTTR
Experimental: Example A: Evaluation of Fungicidal Activity: Septoria Leaf Blotch of Wheat (Zymoseptoria tritici; Bayer Code […]) Technical grades of materials were dissolved in acetone, which were then mixed with nine volumes of water (H2O) containing 110 ppm Triton X-100. The fungicide solutions were applied onto wheat seedlings using an automated booth sprayer to run-off. All sprayed plants were allowed to air dry prior to further handling. All fungicides were evaluated using the aforementioned method for their activity vs. all target diseases, unless stated otherwise. Wheat plants (variety 'Yuma') were grown from seed in a greenhouse in soil-less potting mix until the first leaf was fully emerged, with 7-10 seedlings per pot. These plants were inoculated with an aqueous spore suspension of Zymoseptoria tritici either 3 days prior to fungicide treatment (3 day curative; 3DC) or 1 day after fungicide treatment (1 day protectant; 1DP). After inoculation the plants were kept in 100% relative humidity for three days to permit spores to germinate and infect the leaf. The plants were then transferred to a greenhouse for disease to develop. When disease symptoms were fully expressed on the 1st leaves of untreated plants, infection levels were assessed on a scale of 0 to 100 percent disease severity. Percent disease control was calculated using the ratio of disease severity on treated plants relative to untreated plants.

Rhynchosporium commune = experiment: Leaf blotch of barley, whole-plant fungicidal activity (RHYNSE); assay type: in vivo; details: 24 h, 1DP (1 day protectant), read-out: % Disease Control Rating RHYNSE
Experimental: Technical grades of materials were dissolved in acetone, which were then mixed with nine volumes of water (H2O) containing 110 ppm Triton X-100. The fungicide solutions were applied onto wheat seedlings using an automated booth sprayer to run-off. All sprayed plants were allowed to air dry prior to further handling. All fungicides were evaluated using the aforementioned method for their activity vs. all target diseases, unless stated otherwise. Example D: Evaluation of Fungicidal Activity: Leaf Blotch of Barley (Rhynchosporium commune; Bayer Code […]) Barley plants (variety 'Harrington') were grown from seed in a greenhouse in soil-less potting mix until the first leaf was fully emerged, with 7-10 seedlings per pot. These plants were inoculated with an aqueous spore suspension of Rhynchosporium commune after fungicide treatments. After inoculation, the plants were kept in a dark dew room with 100% relative humidity for two days to permit spores to germinate and infect the leaf. The plants were then transferred to a greenhouse for disease to develop. Fungicide formulation and application were made as described in Example A. Disease assessment was conducted as described in Example A.

Structure (SMILES)	pest or weed control at 200 ppm (Puccinia triticina) [%]	pest or weed control at 200 ppm (Phakopsora pachyrhizi; 24 h, 1DP (1 day protectant)) [%]	pest or weed control at 200 ppm (Phakopsora pachyrhizi; 72 h, 3DC (3 day curative)) [%]	pest or weed control at 200 ppm (Zymoseptoria tritici; 24 h, 1DP (1 day protectant)) [%]	pest or weed control at 200 ppm (Zymoseptoria tritici; 72 h, 3DC (3 day curative)) [%]	pest or weed control at 200 ppm (Rhynchosporium commune) [%]
CCN(C)/C=N/c1cc(C)c(C(=O)CC2CCC2)cc1C [Compound 27]	> 85	> 85	> 85	> 85	50 to 85	> 85
CCN(C)/C=N/c1cc(C)c(C(=O)CCC(F)(F)C(F)(F)F)cc1C [Compound 29]	> 85	> 85	> 85	50 to 85	50 to 85	> 85
CCN(C)/C=N/c1cc(F)c(C(=O)CC2CCCC2)cc1C [Compound 30]	50 to 85	> 85	> 85	< 20	< 20	< 20
CCN(C)/C=N/c1cc(C)c(C(=O)Cc2cccc(C(=O)OC)c2F)cc1C [Compound 31]	> 85	< 20	< 20	> 85	< 20	50 to 85
CCN(C)/C=N/c1cc(C)c(C(=O)Cc2ccc(Cl)cc2F)cc1C [Compound 32]	> 85	> 85	> 85	> 85	< 20	> 85
CCN(C)/C=N/c1cc(C)c(C(=O)Cc2ccccc2OC(F)(F)F)cc1C [Compound 33]	> 85	> 85	> 85	> 85	50 to 85	> 85
CCN(C)/C=N/c1cc(C)c(C(=O)Cc2cccc(OC(F)(F)F)c2)cc1C [Compound 34]	> 85	> 85	> 85	50 to 85	< 20	> 85
CCN(C)/C=N/c1cc(OC)c(C(=O)CC2CCCC2)cc1C [Compound 35]	> 85	> 85	> 85	50 to 85	< 20	> 85
CCN(C)/C=N/c1cc(C)c(C(=O)Cc2cccc(C(F)(F)F)c2F)cc1C [Compound 36]	> 85	> 85	> 85		< 20	50 to 85
CCN(C)/C=N/c1cc(OC)c(C(=O)Cc2c(F)cc(F)cc2F)cc1C [Compound 37]	> 85	> 85	> 85	> 85	50 to 85	< 20
Cc1cc(C(=O)CC2CCCCC2)c(C)cc1/N=C/N(C)CC(F)(F)F [Compound 38]	< 20	< 20	< 20	< 20	< 20	< 20
C=CCN(C)/C(S)=N/c1cc(C)c(C(=O)CC2CCCCC2)cc1C [Compound 45]	> 85	20 to 50	50 to 85	< 20	< 20	< 20
Cc1cc(C(=O)CC2CCCCC2)c(C)cc1/N=C(\S)N(C)CC(F)(F)F [Compound 46]	< 20	20 to 50	< 20	< 20	< 20	< 20
Cc1cc(C(=O)CC2CCCCC2)c(C)cc1/N=C(\S)N(C)C(C)C [Compound 47]	> 85	> 85	> 85	> 85	< 20	20 to 50
Cc1cc(C(=O)CC2CCCCC2)c(C)cc1/N=C(\S)N(C)C1CCCCC1 [Compound 48]	< 20	< 20	< 20	< 20	< 20	< 20
Cc1cc(C(=O)CC2CCCCC2)c(C)cc1/N=C(\S)N1CCCC1 [Compound 49]	> 85	> 85	50 to 85	20 to 50	< 20	< 20
Cc1cc(C(=O)CC2CCCCC2)c(C)cc1/N=C(\S)N1CCCCC1 [Compound 50]	> 85	> 85	> 85	> 85	20 to 50	< 20
Cc1cc(C(=O)CC2CCCCC2)c(C)cc1/N=C(\S)N(C)c1ccccc1 [Compound 51]	< 20	< 20	< 20	20 to 50	< 20	< 20
Cc1cc(C(=O)CC2CCCCC2)c(C)cc1/N=C(\S)N(C)C [Compound 52]	> 85	> 85	50 to 85	20 to 50	< 20	< 20
Cc1cc(C(=O)CC2CCCCC2)c(C)cc1/N=C(\S)N(C)Cc1ccccc1 [Compound 53]	< 20	< 20	< 20	< 20	< 20	< 20
Cc1cc(C(=O)CC2CCCCC2)c(C)cc1/N=C(\S)N(C)C1CC1 [Compound 54]	> 85	> 85	50 to 85	> 85	< 20	< 20
CCN(CC)/C(S)=N/c1cc(C)c(C(=O)CC2CCCCC2)cc1C [Compound 55]	> 85	> 85	> 85	50 to 85	< 20	< 20
Cc1cc(C(=O)CC2CCCCC2)c(C)cc1/N=C/N(C)Cc1ccccc1 [Compound 56]	20 to 50	< 20	< 20	< 20	< 20	< 20
